# Assay results as given in patent US5049506A, “Proline-containing decapeptides as substrates for factor XIII” (Behringwerke Aktiengesellschaft, priority 1987, dated 1991).
# Non-standard residues stand in square brackets, D forms with d. Residues, ends and D or L forms follow the SMILES beside them. Hyp = O=C(O)[C@@H]1C[C@@H](O)CN1
# Target: T1, factor XIII (Homo sapiens, UniProt P00488)
# T1 sequence (P00488 39-732 limits assumed): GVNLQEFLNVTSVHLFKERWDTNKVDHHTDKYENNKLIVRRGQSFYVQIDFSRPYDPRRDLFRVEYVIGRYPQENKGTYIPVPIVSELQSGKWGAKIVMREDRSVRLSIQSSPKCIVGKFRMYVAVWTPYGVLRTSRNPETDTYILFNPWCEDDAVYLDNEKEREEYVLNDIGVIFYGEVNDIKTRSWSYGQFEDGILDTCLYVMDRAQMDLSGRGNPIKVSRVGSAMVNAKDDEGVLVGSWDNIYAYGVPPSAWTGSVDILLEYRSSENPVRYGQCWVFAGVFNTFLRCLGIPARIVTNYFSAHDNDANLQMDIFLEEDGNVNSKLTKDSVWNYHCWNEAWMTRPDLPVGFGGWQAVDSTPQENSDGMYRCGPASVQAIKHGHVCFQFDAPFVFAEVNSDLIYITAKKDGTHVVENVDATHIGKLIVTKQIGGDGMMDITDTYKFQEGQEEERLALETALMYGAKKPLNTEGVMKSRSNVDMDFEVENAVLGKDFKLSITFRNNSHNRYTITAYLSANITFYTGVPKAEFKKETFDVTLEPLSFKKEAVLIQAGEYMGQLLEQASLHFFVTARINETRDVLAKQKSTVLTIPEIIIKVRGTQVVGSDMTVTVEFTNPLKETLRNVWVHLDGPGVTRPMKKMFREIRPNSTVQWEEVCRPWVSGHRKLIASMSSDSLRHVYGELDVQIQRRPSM
# Assay: Determination of factor XIII activity by photometric measurement (peptide as substrate, NADH/GLDH-coupled ammonia detection)
# Assay type: biochemical
# Conditions: decrease in extinction at 340 nm; factor XIII 0.6 U activated with thrombin at 37° C. for 10 min; 100 μl decapeptide amide solution (10 mg/ml in H2O); glycine ethyl ester
# Method: To test the peptides for their suitability as substrates for the transglutaminase F XIII, a sample solution which contains factor XIII is activated in a buffer mixture which contains about 30mmol/1 calcium chloride at pH 7.6±0.5 with thrombin. The peptide solutions, a solution of an amine derivative, for example glycine ethyl ester or glycine methyl ester, ketoglutarate buffer, glutamic dehydrogenase and an NADH solution are then added. The liberation of ammonia from the decapeptide amide is then measured by means of the decrease in extinction at 340±15nm, and the activity of F XIII is determined.
# 50 μl of a solution containing factor XIII (0.6 U), which had been adjusted to pH 7.6 and which contained 50 millimolar HEPES, 150 milli molar sodium chloride and 30 millimolar CaC12, were incubated with 25 μl of thrombin solution (30 units dissolved in 1 ml physiological saline) in a 1 ml cuvette at 37° C. for 10 min. 700 μl of a buffer solution composed of triethanolamine pH 8.0, 2.2 g of alpha-ketoglutarate/liter and 133 mg of NADH/liter were added. The sample solution was then mixed with 25 μl of a solution of […] of glutamic dehydrogenase (about 120 units/mg), 100 ml of glycerol, pH 7, 100 μl of glycine ethyl ester (30 mg/ml in H2 O) and 100 μl of decapeptide amide solution (10 mg/ml in H2 O). The decrease in extinction was measured. The results of the kinetic measurement at 340 nm are to be found in the form of delta OD/min values in the following Tables.
row,SMILES,Delta OD/min
1,CC(C)C[C@H](NC(=O)[C@@H](NC(=O)[C@H](CCCCN)NC(=O)[C@H](CO)NC(=O)[C@H](CCC(N)=O)NC(=O)CNC(=O)[C@@H]1C[C@@H](O)CN1C(=O)CNC(=O)[C@@H](N)CC(C)C)C(C)C)C(=O)NCC(N)=O [Leu--Gly--Hyp--Gly--Gln--Ser--Lys--Val--Leu--Gly--NH2] (H-LG[Hyp]GQSKVLG-NH2),0.27 OD/min
2,CC[C@H](C)[C@H](NC(=O)[C@@H](NC(=O)[C@H](CCCCN)NC(=O)[C@H](CO)NC(=O)[C@H](CCC(N)=O)NC(=O)CNC(=O)[C@@H]1CCCN1C(=O)CNC(=O)[C@@H](N)CC(C)C)C(C)C)C(=O)NCC(N)=O [Leu--Gly--Pro--Gly--Gln--Ser--Lys--Val--Ile--Gly--NH2] (H-LGPGQSKVIG-NH2),0.35 OD/min
3,CC(C)C[C@H](NC(=O)[C@@H](NC(=O)[C@H](CCCCN)NC(=O)[C@H](CO)NC(=O)[C@H](CCC(N)=O)NC(=O)CNC(=O)[C@@H]1CCCN1C(=O)CNC(=O)[C@@H](N)CC(C)C)C(C)C)C(=O)NCC(N)=O [Leu--Gly--Pro--Gly--Gln--Ser--Lys--Val--Leu--Gly--NH2] (H-LGPGQSKVLG-NH2),0.32 OD/min
